Measurements as given in patent US20220000860A1, “COMPOUNDS, COMPOSITIONS, AND METHODS FOR TREATING HUMAN IMMUNODEFICIENCY VIRUS” (OYAGEN, INC., priority 2017, published 2022).
Read-outs that look alike come from different tables or passages of the source.

How the values were obtained:
[1] = tested on: Vif-dependent APOBEC3G degradation; assay: Vif-Dependent APOBEC3G Degradation Assay; type: cell-based, HIV
Protocol: APOBEC3G-V5-mCherry was stably expressed from the pIRES-P vector in 293T cells under puromycin selection. Fifty ng of plasmid expressing Vif-HA (accession no. AB573087) was transfected into the cells in 384-well format with Turbofect on a liquid handling robot. Four hours after transfection the compounds were added to cells in a range from 0-15 μM. Twenty-four hours after compound addition mCherry fluorescence was read on a BioTek Synergy4 plate reader (ex=587 nm, em=610 nm). Relative fluorescence units (RFU) from compound treated wells were quantified using thresholds set by the −Vif (positive control) and +Vif (negative control).

[2] = biological target: T1, recombinant HIV (pNL4-3) heterodimeric (p66/p51) Reverse Transcriptase (Human immunodeficiency virus type 1 group M subtype B, UniProt P12497); assay: reverse transcriptase assay; type: biochemical
T1 construct: purified recombinant HIV (pNL4-3) heterodimeric (p66/p51) Reverse Transcriptase (RT); purchased
Protocol: For the assays listed in Table I, the integrase assay was conducted using the XpressBio HIV-1 Integrase Assay Kit according to the manufacture's protocol. The protease assay was conducted with the Anthranilyl (Abz)-HIV Protease Substrate (Bachem H-2992), a hexapeptide FRET substrate derived from the p24/p15 cleavage site of the viral gag-pol poly-protein, which allows the screening of potential HIV protease inhibitors. 1 mM Abz-Substrate was diluted with Assay Buffer to a working stock of 20 μM. A 50 μM stock HIV-1 protease (received from Sook-kyung Lee (UNC)) was diluted with Assay Buffer (50 mM HEPES, pH 6.8, 150 mM NaCl, and 1% DMSO) to a working stock of 100 nM. 2 μl 100 nM HIV-1 Protease along with 2 uL 20 μM Abz Substrate was added into each well and incubated at room temperature (avoiding light) for 1 hour before being read on an Envision plate reader (Perkin Elmer) excitation at 280 nm, emission at >435 nm. The reverse transcriptase assay utilized purified recombinant HIV (pNL4-3) heterodimeric (p66/p51) Reverse Transcriptase (RT) that was purchased from a commercially available source. The assay was performed in 96-well filter plate, where RT activity was determined by the incorporation of radiolabeled deoxyribonucleotides into the newly synthesized DNA strand. The RT reaction mixture contained in vitro transcribed viral RNA derived from the HIV-1NL4-3 5′-LTR region (position 454 to 652) and primer that is complementary to the primer binding site (PBS, nucleotide residues nucleotides 636 to 652), radiolabeled deoxyribonucleotide, dNTPs and reverse transcriptase. Briefly, the reaction was carried out in a volume of 50 μl containing 50 mM Tris HCl, pH 7.8, 50 mM KCl, 5 mM MgCl2, 1 mM DTT, 50 μM each of dATP, dCTP, dGTP, 50 nM dTTP, 1 μCi of [^3H] dTTP (70-90 Ci/mM) and 5 nM template/primer. The reaction was initiated by the addition of 10 nM RT. For compound screening, serially diluted test articles were added to the reaction followed by the addition of RT. The reaction mixture was incubated at 37° C. for 1 h, and then quenched by the addition of ice-cold trichloroacetic acid (TCA) to the final concentration of 10%. The plate was incubated at 4° C. for 1 h to precipitate the synthesized DNA, then rinsed 3-times with 10% TCA and 1 time with 70% ethanol. After addition of 25 μl scintillation fluid to completely dried wells, radioactivity is counted by MicroBeta scintillation counter. The reduction of radioactivity represents the potency of compound inhibition.

98US_MSC5016 (Subtype C) = assay: PBMC Acute Infection, 98US_MSC5016; type: cell-based, HIV; settings: Human immunodeficiency virus 1, PBMC, isolate 98US_MSC5016, subtype C, RT activity readout; for EC50: read-out: EC50; for EC90: read-out: EC90
Protocol: (§1) PHA-stimulated cells from at least two normal donors were pooled (i.e. mixed together), diluted in fresh medium to a final concentration of 1×10^6 cells/mL, and plated in the interior wells of a 96-well round bottom microplate at 50 μL/well (5×10^4 cells/well). Pooling of mononuclear cells from more than one donor was used to minimize the variability observed between individual donors in quantitative and qualitative differences in HIV infection and overall response to the PHA and IL-2 of primary lymphocyte populations. Each plate contained virus control wells (cells plus virus) and experimental wells (drug plus cells plus virus) of either 00KE_KER2008 (Subtype A), IIIB (Subtype B), or 98US_MSC5016 (Subtype C). Test drug dilutions were prepared at a 2×concentration and 100 μL of each concentration was placed in appropriate wells. Fifty μL of a predetermined dilution of virus stock was placed in each test well (final MOI≅0.1). After this period, cell-free supernatant samples were collected for analysis of reverse transcriptase (RT) activity with an RT assay. […] In the Table below SI50=CC50/EC50 and SI90=CC90/EC90.

[3] = PBMC Acute Infection, cytotoxicity (CC50/CC90); type: cell-based; settings: human
Protocol: as §1

topoisomerase I (TOP1) = biological target: T2, topoisomerase I (TOP1) (Homo sapiens, UniProt P11387); assay: topoisomerase I inhibition
T2 sequence (P11387 1-765): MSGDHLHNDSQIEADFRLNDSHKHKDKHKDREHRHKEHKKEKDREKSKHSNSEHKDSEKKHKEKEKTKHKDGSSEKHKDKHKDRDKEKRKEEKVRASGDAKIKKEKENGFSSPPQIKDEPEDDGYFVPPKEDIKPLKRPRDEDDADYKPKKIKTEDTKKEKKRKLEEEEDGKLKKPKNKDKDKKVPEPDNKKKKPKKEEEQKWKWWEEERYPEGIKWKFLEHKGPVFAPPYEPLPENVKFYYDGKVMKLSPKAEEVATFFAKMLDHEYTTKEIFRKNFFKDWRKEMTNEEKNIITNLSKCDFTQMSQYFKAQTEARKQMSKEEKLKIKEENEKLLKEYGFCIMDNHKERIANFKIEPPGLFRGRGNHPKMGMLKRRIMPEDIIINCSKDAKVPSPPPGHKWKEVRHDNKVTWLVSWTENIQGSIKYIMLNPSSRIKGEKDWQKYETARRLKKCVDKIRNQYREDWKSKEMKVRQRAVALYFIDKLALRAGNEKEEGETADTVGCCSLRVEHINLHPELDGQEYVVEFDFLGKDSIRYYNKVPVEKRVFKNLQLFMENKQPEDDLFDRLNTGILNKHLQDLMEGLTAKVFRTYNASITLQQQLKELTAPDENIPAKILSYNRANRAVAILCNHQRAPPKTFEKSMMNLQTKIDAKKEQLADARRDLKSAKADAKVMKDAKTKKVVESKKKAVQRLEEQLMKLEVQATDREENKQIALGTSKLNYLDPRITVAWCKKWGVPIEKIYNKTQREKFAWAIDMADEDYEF

[4] = Human immunodeficiency virus 1, HEK-293T, 24 h, read-out: EC50, A3G Degradation Assay
[5] = Human immunodeficiency virus 1, read-out: A3G degradation at
[6] = PHA-stimulated PBMCs pooled from at least two normal donors, row of isolate 00KE-KER2008, subtype A
[7] = row of isolate 00KE-KER2008, subtype A

SMILES	Vif-dependent A3G degradation (result in words) [1]	EC50 [1, 4]	EC50 [1, 5]	IC50 [2]	activity against HIV reverse transcriptase (result in words) [2]	EC50 (98US_MSC5016 (Subtype C))	EC90 (98US_MSC5016 (Subtype C))	CC50 [3, 6]	CC90 [3, 6]	CC50 ([3]; PHA-stimulated PBMCs pooled from at least two normal donors, row of isolate 98US_MSC5016, subtype C)	CC50 ([3]; PHA-stimulated PBMCs pooled from at least two normal donors, row of isolate IIIB, subtype B)	inhibition of topoisomerase I (TOP1) (result in words) (topoisomerase I (TOP1))	CC50 [3, 7]	CC90 [3, 7]	CC50 ([3]; row of isolate 98US_MSC5016, subtype C)	CC50 ([3]; row of isolate IIIB, subtype B)
CCc1c2c(nc3ccc(N)cc13)-c1cc3c(c(=O)n1C2)CNC(=O)[C@]3(O)CC [Compound O5-SN, (S)-9-Amino-4,11-diethyl-4-hydroxy-1,2-dihydroquinolino[2′,3′:3,4]pyrrolo[1,2-b][2,7]naphthyridine-3,14(4H,12H)-dione]	block	99 nM	84 nM	> 100000 nM	inactive	6 nM	20 nM	2530 nM	> 100000 nM	2530 nM	6290 nM	do not inhibit	–	–	–	–
CCc1c2c(nc3ccc(O)cc13)-c1cc3c(c(=O)n1C2)CNC(=O)[C@]3(O)CC [SN38-L, (S)-4,11-Diethyl-4,9-dihydroxy-1,2-dihydroquinolino[2′,3′:3,4]pyrrolo[1,2-b][2,7]naphthyridine-3,14(4H,12H)-dione]	block	84 nM	99 nM	> 100000 nM	inactive	4 nM	16 nM	–	–	–	–	do not inhibit	1180 nM	27900 nM	1180 nM	5790 nM
